Experimental findings from PMC2873071 (Nature chemical biology, 2010) are described below.

pIC50: −log10 of the molar value.

In this assay the target is T1, glucocerebrosidase (GC; Cerezyme, recombinant WT GC) (Homo sapiens, UniProt P04062).
T1 sequence (P04062 40-536): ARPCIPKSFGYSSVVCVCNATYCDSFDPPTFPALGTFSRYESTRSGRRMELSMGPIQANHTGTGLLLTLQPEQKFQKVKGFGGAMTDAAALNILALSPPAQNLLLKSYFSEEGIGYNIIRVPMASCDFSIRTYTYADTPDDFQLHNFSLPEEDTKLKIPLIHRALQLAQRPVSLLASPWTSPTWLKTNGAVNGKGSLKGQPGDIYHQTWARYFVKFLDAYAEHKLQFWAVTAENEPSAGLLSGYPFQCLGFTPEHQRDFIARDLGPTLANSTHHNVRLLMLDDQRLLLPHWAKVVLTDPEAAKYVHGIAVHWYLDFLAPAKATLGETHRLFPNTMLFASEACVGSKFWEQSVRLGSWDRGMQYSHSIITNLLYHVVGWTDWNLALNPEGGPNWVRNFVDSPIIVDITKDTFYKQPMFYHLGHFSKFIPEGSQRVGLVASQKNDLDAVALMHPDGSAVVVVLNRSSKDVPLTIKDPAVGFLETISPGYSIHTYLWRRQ
Kind of assay: in vitro enzyme inhibition assay with recombinant GC. The class given is biochemical.

For orientation: pIC50 means −log10 of the IC50, conventionally taken in molar units. On to `O=C1CN(/N=C/c2ccc(-c3ccc([N+](=O)[O-])cc3)o2)C(O)=N1` [compound 3, dantrolene], for which the pIC50 was approximately 4.05.
